Peptide text beside a SMILES is read from it.
Key:
HLA-A2+ CD34+ cells = details: reference 24; cited from earlier work
HLA-A2.1 molecule = molecular target: T1, HLA-A2.1 molecule (Homo sapiens, UniProt P04439, D140Y/D185E/D98H/E176V/E277Q/G131W/G231S/I119V/I121R/I166T/I218V/L300P/L318F/N151K/N90K/P208A/P217A/Q86G/Q94H/R138H/R169H/T345S); assay: HLA-A2.1 binding/stabilization assay on TAP- T2 cells; details: time required for a 50% reduction in mean fluorescence intensity
T1 construct: endogenous in cells; host or cells: human T2 cells (TAP-, HLA-A2.1+)
Method: The relative avidity was measured as previously described (25). Briefly, T2 cells were incubated overnight at 37° C. in RPMI supplemented with human β2-microglobulin (100 ng/ml) (Sigma, St. Louis, Mo.) in the absence (negative control) or presence of the test peptide or the reference peptide 4761[…]484 (SEQ ID NO:7) of HIV-1 reverse transcriptase at various final peptide concentrations (0.1-100 μM). Cells were incubated with Brefeldin A (0.5 μg/ml) for one hour and subsequently stained with a saturating concentration of monoclonal antibody BB7.2 for 30 minutes at +4° C. followed by washing and a second incubation with a goat antibody to mouse Ig (Fab′)2 conjugated to FITC (Caltag, South San Francisco). Cells were then washed, fixed with 1% paraformaldehyde and analyzed in a FACs Calibur cytofluorimeter (Becton & Dickinson, San Jose, Calif.). The mean fluorescence intensity of each concentration minus that of cells without peptide was used as an estimate of peptide binding. […] Dissociation of the test peptide from the HLA-A2.1 molecule reflects the half-life of fluorescence intensity of the peptide/MHC complex over time. The half-life of the complex (DC50) refers to the time (hours) required for a 50% reduction of the TO mean fluorescence intensity (25). Synthetic peptides 571[…]579 (SEQ ID NO:5) of carcinoembryonic antigen (CEA) and 476[…]486 (SEQ ID NO:6) of melanoma antigen gp100 were used as internal controls to account for inter-tests variability and for consistency with previously reported RA and DC50 measures (25).
Since the immunogenicity of MHC Class I-restricted peptides reflects to some degree their binding and stabilizing capacity for MHC Class I molecules (31-33) Applicant sought direct proof of the strength of interaction between the two hTRT peptides and the HLA-A2.1 molecule in a conventional binding/stabilization assay that uses the antigen-transporting deficient (TAP-) HLA-A2.1+ human T2 cells. […] The stability of each peptide bound to HLA-A2.1 was measured as the half-life of the complex

[1] = system: hTRT+/HLA-A2+ melanoma cell line 624; assay: Normal donor CTL against p572(Y), lysis of melanoma 624; assay type: cell-based, human; details: normal blood donor PBMC immunized in vitro
Excerpt: FIG. 6. […] The results are expressed as percent lysis and show by comparison lysis of 624 melanoma cells, and HLA-A2+T2 target cells pulsed with the p572(Y) and p572 wild type peptides, respectively. Nonspecific lysis of T2 cells is shown as a control.
CTL generated against p572 were also able to lyze the hTRT+/HLA-A2+ melanoma cell line 624. The antigen-recognition activity of T cells is intimately linked with recognition of MHC (HLA in humans) molecules.

[2] = system: HLA-A2+T2 target cells pulsed with peptide; assay: In vitro immunization of normal HLA-A2+ donor PBMC with Y-modified hTRT peptides; assay type: cell-based, human
Excerpt: PBMC from three normal HLA-A2+ individuals were immunized with the Y-modified peptides. The results are summarized as follows (Table VII).

[3] = molecular target: T2, HLA-A2.1 molecule on TAP-deficient human T2 cells (human); assay: T2 cell HLA-A2.1 binding/stabilization assay, BB7.2 flow cytometry; ratio of peptide concentration giving 20% of maximal binding, against reference peptide [..] (SEQ ID NO:7) of HIV-1 reverse transcriptase; lower is stronger
T2 construct: MHC class I molecule on the surface of T2 cells; also called MHC Class I
Method: Briefly, T2 cells were incubated overnight at 37° C. in RPMI supplemented with human β2-microglobulin (100 ng/ml) (Sigma, St. Louis, Mo.) in the absence (negative control) or presence of the test peptide or the reference peptide 476_1[…]$484$ (SEQ ID NO:7) of HIV-1 reverse transcriptase at various final peptide concentrations (0.1-100 µM). Cells were incubated with Brefeldin A (0.5 µg/ml) for one hour and subsequently stained with a saturating concentration of monoclonal antibody BB7.2 for 30 minutes at +4° C. followed by washing and a second incubation with a goat antibody to mouse Ig (Fab')2 conjugated to FITC (Caltag, South San Francisco). Cells were then washed, fixed with 1% paraformaldehyde and analyzed in a FACs Calibur cytofluorimeter (Becton & Dickinson, San Jose, Calif.). The mean fluorescence intensity of each concentration minus that of cells without peptide was used as an estimate of peptide binding. […] Dissociation of the test peptide from the HLA-A2.1 molecule reflects the half-life of fluorescence intensity of the peptide/MHC complex over time. The half-life of the complex (DC50) refers to the time (hours) required for a 50% reduction of the TO mean fluorescence intensity (25). Synthetic peptides $571$[…]$579$ (SEQ ID NO:5) of carcinoembryonic antigen (CEA) and $476$[…]$486$ (SEQ ID NO:6) of melanoma antigen gp100 were used as internal controls to account for intertests variability and for consistency with previously reported RA and DC50 measures (25).
Since the immunogenicity of MHC Class I-restricted peptides reflects to some degree their binding and stabilizing capacity for MHC Class I molecules (31-33) Applicant sought direct proof of the strength of interaction between the two hTRT peptides and the HLA-A2.1 molecule in a conventional binding/stabilization assay that uses the antigen-transporting deficient (TAP-) HLA-A2.1+ human T2 cells.

CC[C@H](C)[C@H](N)C(=O)N[C@@H](CC(C)C)C(=O)N[C@@H](C)C(=O)N[C@@H](CCCCN)C(=O)N[C@@H](Cc1ccccc1)C(=O)N[C@@H](CC(C)C)C(=O)N[C@@H](Cc1c[nH]cn1)C(=O)N[C@@H](Cc1c[nH]c2ccccc12)C(=O)N[C@@H](CC(C)C)C(=O)O [p540] (H-ILAKFLHWL-OH)
lysis of HLA-A2+ CD34+ cells by CTL raised in normal individuals (HLA-A2+ CD34+ cells): did not lyse | DC50 (half-life of peptide/HLA-A2.1 complex) (HLA-A2.1 molecule): 4 to 6 h

CC(C)C[C@H](NC(=O)[C@H](Cc1ccccc1)NC(=O)[C@H](CC(=O)O)NC(=O)[C@H](CC(=O)O)NC(=O)[C@@H](NC(=O)[C@H](CC(C)C)NC(=O)[C@@H](N)CCCNC(=N)N)C(C)C)C(=O)N[C@@H](CC(C)C)C(=O)N[C@H](C(=O)O)C(C)C [p865] (H-RLVDDFLLV-OH)
DC50 (half-life of peptide/HLA-A2.1 complex) (HLA-A2.1 molecule): 2 to 4 h

RLFFYRKSV [p572 wild type]
lysis of melanoma cell line 624 in words [1]: able to lyze

VLYRYGSFSV (listed as Homo sapiens) [gp100 p476, peptide of human melanoma antigen gp100, internal control]
DC50 (half-life of peptide/HLA-A2.1 complex) (HLA-A2.1 molecule): 4 to 6 h

YELLRSFFYV (listed as Homo sapiens) [p555(Y), Y-modified hTRT peptide p555]
CTL against target cells pulsed with p555(Y) ([2]; donor 218): 4% | CTL against target cells pulsed with p555(Y) ([2]; donor 219): 8% | CTL against target cells pulsed with p555(Y) ([2]; donor 222): 1%

YLARCALFV (listed as Homo sapiens) [p152(Y), Y-modified hTRT peptide p152]
CTL against target cells pulsed with p152(Y) ([2]; donor 218): 7% | CTL against target cells pulsed with p152(Y) ([2]; donor 219): 2% | CTL against target cells pulsed with p152(Y) ([2]; donor 222): 1%

YLFFYRKSV (listed as Homo sapiens) [p572(Y), Y-modified hTRT peptide p572]
lysis of melanoma cell line 624 in words [1]: kill melanoma cells 624 | CTL against target cells pulsed with p572(Y) ([2]; donor 218): 48-50% | CTL against target cells pulsed with p572 wild type ([2]; donor 218): 26-46% | CTL against target cells pulsed with p572(Y) ([2]; donor 219): 4% | CTL against target cells pulsed with p572(Y) ([2]; donor 222): 27% | CTL against target cells pulsed with p572 wild type ([2]; donor 222): 5%

B1: hTRT p540 synthetic peptide (residues 540-548 of human telomerase reverse transcriptase) (peptide)
peptide: ILAKFLHWL
notes: Synthetic 9mer, bought from the Biopolymer Synthesis Center (CalTech)
Relative Avidity (RA) [3]: 2.9

B2: hTRT p865 synthetic peptide (residues 865-873 of human telomerase reverse transcriptase) (peptide)
peptide: RLVDDFLLV
notes: as for B1
Relative Avidity (RA) [3]: 2.5

VLYRYGSFSV (bought from Neosystem) [gp100 p476 synthetic peptide of human melanoma antigen gp100]
Relative Avidity (RA) [3]: 9

Reference: patent US7388071B2, “Composition and method for inducing and enhancing a telomerase reverse transcriptase-reactive cytotoxic T lymphocyte response” (The Regents of the University of California, priority 2000, dated 2008)
